Assay results reported in PMC12332266 (Frontiers in Pharmacology, 2025).
Entries after “also recorded” stand apart in the source; their conditions may differ. Like-named read-outs stand apart in the source and are kept apart here.

Columns and labels:
[1] = ref extensive literature search, cited from earlier work
[2] = system: hiPSC-CM (iCell Cardiomyocytes^2); experiment: miRNA in hiPSC-CM culture media by RT-qPCR at 24, 48 and 72 h post-treatment; details: doxorubicin 0.1 μM, vinblastine 0.3 μM; for hsa-miR-133b in culture media, in words: 24, 48, 72 h, arsenic trioxide 0.48 μM, milrinone 3 μM, vincristine 0.3 μM, erlotinib 7.7 μM;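 as to all read-outs here: medium RNA quantified by RT-qPCR, CT-values normalized to housekeeping miRNAs, compared against DMSO control, doses chosen from the MEC for CI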
Protocol: To extract total RNA from the culture media, hiPSC-CM were plated on 24-well plates by seeding 275,000 cells per mL per well. hiPSC-CM were maintained for 7 days in 200 µL of iCell^2 Maintenance Medium (iCell^2 MM; FCDI) for the 48-well ePlate and in 1 mL for 24-well plate, before drug treatment. Culture media change was performed every 2 days.
Stock solutions were diluted 1:1000 in iCell^2 MM before treatment and equilibrated at 37°C. As vehicle control, DMSO 0.1% was added to the media. Drug treatments on biological replicates (n = 3) were refreshed daily, and culture media was collected for further miRNA analysis. After 72 h, cell pellets were collected and stored at −80°C until total RNA extraction.
hiPSC-CM culture media was collected daily from 24-well plates, and centrifuged (+4°C, 11,000 rpm) for 5 min to remove cellular debris/cells. Total RNA was extracted from 300 µL of supernatant by Trizol/Chloroform phase separation and purification of total RNA by miRNeasy 96 Kit (Qiagen, Hilden, Germany). The spike-in control cel-miR-39 (Qiagen, Hilden, Germany) was used to check the quality of samples and PCR efficiency. DNase treatment (RNase-Free DNase Set (Qiagen, Hilden, Germany)) was applied according to the manufacturer’s instructions. After the RNA extraction, the same RT-qPCR protocol as for hiPSC-CM lysate was followed. Multiple unpaired t-tests were performed to compare delta CT-values (CT-values normalized to the housekeeping miRNAs) of the treatment groups to the DMSO control.
Analysis of miRNA in the culture media of hiPSC-CM treated with structural cardiotoxicants was performed at 24-, 48- and 72-hour post-treatment. […] The treatment concentrations were selected based on the MEC for CI to ensure that the preliminary evidence of cardiotoxicity in hiPSC-CMs could potentially lead to miRNA release in the culture media.

[3] = system: hiPSC-CM (iCell Cardiomyocytes^2); experiment: Intracellular miRNA expression by RT-qPCR in hiPSC-CM pellets after 72-hour treatment
Procedure, shortened: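 After 72-hour treatment and RTCA CardioECR assessment, total RNA from hiPSC-CM pellets was reverse transcribed, pre-amplified and quantified by TaqMan RT-qPCR against a 17-miRNA panel. Triplicates were pooled, so no statistical analysis was performed.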

[4] = system: hiPSC-CM (iCell Cardiomyocytes^2); experiment: RTCA CardioECR assessment (impedance and electrophysiology parameters); details: for RTCA, MEC (CI): hiPSC-CM, change ≥20%, Table 2
Procedure, shortened: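 iCell^2 cardiomyocytes on fibronectin-coated ePlates monitored continuously by impedance for cell index, beating rate and amplitude. Field potential duration and spike amplitude were recorded from day 4–6 after monolayer formation. Data were double-normalized to DMSO control and baseline, with variability given as SD.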

miRNAs hiPSC-CM pellet, MEC overall [3] [µM]	miRNAs upregulated at the MEC overall (hiPSC-CM pellet) [3]	RTCA, MEC (CI) [4]	Contractility Amplitude MEC ([4]; human, 72 h) [µM]	Spike Amplitude (SA) MEC ([4]; human, 72 h) [µM]	Beating Rate MEC ([4]; human, 72 h) [µM]	Beating rate (BR) MEC ([4]; human, 72 h) [µM]	RTCA, MEC (BR) ([4]; human, 72 h) [µM]	Structure (SMILES)	Cmax total ([1]; Supplementary Table 1) [nM]	Cmax total ([1]; Table 1) [nM]	hsa-miR-133b in culture media, in words [2]	hsa-miR-187-3p in culture media, in words [2]	intracellular miRNA upregulation in hiPSC-CM, in words [3]
0.03	miR-34a-5p, miR-146b-5p, miR-187-3p	0.1 µM (CI)	0.1	0.01	–	–	–	COc1cccc2c1C(=O)c1c(O)c3c(c(O)c1C2=O)C[C@@](O)(C(=O)CO)C[C@@H]3O[C@H]1C[C@H](N)[C@H](O)[C@H](C)O1 [Doxorubicin]	1600	1600	upregulation was detected only after 72 h of treatment; also recorded: significant upregulation was observed only after 72-hour treatment	detected in the culture media only following 72-hour exposure	lowest upregulation of miRNAs was detected at the highest concentration tested
0.0003	miR-126-3p, miR-133b, miR-185-3p	0.3 µM	0.0003	0.0003	0.003	0.003	0.003	CC[C@]1(O)C[C@@H]2CN(CCc3c([nH]c4ccccc34)[C@@](C(=O)OC)(c3cc4c(cc3OC)N(C)[C@H]3[C@@](O)(C(=O)OC)[C@H](OC(C)=O)[C@]5(CC)C=CCN6CC[C@]43[C@@H]65)C2)C1 [Vinblastine]	35	35	upregulation was detected only after 72 h of treatment; also recorded: significant upregulation was observed only after 72-hour treatment	detected in the culture media only following 72-hour exposure	–
